Source: PMC8919507, “Dual Reversible Coumarin Inhibitors Mutually Bound to Monoamine Oxidase B and Acetylcholinesterase Crystal Structures” (ACS Medicinal Chemistry Letters, 2022)

Target: T1, mouse AChE (Mus musculus, UniProt P21836)
T1 sequence (P21836 32-614): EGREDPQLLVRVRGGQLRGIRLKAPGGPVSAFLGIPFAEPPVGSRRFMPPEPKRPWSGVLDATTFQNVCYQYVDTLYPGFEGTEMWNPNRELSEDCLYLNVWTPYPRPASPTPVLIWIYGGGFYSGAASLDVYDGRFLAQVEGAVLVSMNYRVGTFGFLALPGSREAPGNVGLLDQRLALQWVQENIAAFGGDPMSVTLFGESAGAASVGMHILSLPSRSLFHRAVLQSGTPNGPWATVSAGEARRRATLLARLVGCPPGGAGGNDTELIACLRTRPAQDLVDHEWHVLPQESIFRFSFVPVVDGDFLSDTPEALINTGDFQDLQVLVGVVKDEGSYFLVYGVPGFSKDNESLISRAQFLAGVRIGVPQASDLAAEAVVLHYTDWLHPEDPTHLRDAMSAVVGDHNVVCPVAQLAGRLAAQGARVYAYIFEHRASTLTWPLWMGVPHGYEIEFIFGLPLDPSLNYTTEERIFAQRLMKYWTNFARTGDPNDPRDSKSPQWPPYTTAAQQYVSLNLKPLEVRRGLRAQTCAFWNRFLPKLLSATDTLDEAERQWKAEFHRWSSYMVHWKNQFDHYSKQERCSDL
Test: AChE inhibition, spectrophotometric Ellman's method on purified recombinant enzyme
Conditions: 1 mM acetylthiocholine iodide, pH 7.4
Protocol: Mouse AChE was expressed in HEK293 F cells and purified as previously reported.3 The activity
of AChE was measured using the Ellman assay adaped to a 96-well plate format.4 The
acetylthiocholine iodide was 1 mM. The measurements were performed in 0.1 M phosphate
Determination of IC50 values for the compounds
inhibition of AChE was performed as previously reported.6 At least 5 replicate IC50 determinations at 8
inhibitor concentrations were performed for each compound. The obtained dose-response curve was
fitted using the response variable slope versus log(inhibitor concentration) equation (four parameters) in
GraphPad Prism software 5.0.

Compound	IC50 [nM]
Cc1c(C)c2ccc(OCC3CCCN(Cc4ccccc4)C3)cc2oc1=O (single isomer, unassigned; (-)) [(−)-2, 7-[(1-benzylpiperidin-3-yl)methoxy]-3,4-dimethyl-2H-chromen-2-one]	700 ± 50
Cc1c(C)c2ccc(OCC3CCCN(Cc4ccccc4)C3)cc2oc1=O (single isomer, unassigned; (+)) [(+)-2, 7-[(1-benzylpiperidin-3-yl)methoxy]-3,4-dimethyl-2H-chromen-2-one]	1500 ± 100
